Test results from patent US7763615B2, “Ecteinascidin analogs for use as antitumour agents” (priority 2001, dated 2010).

Tests used:
physchem [1] = details: pH 7.4, aqueous buffer, Solubility Dulbecco's PBS pH 7.4
[2] = s9, 60 min, 1 μM
H-MEC-1 = experiment: Inhibition of cells growth by colorimetric assay (SRB), H-MEC-1; type: cell-based; details: Homo sapiens, HMEC-1, 48 h
In short: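 Absorbance at 490 nm of sulphorhodamine B bound by TCA-fixed cells gives the growth readout after 48 h continuous exposure to test samples (10 to 10^−8 μg/ml). Cells were seeded at 5×10^3 per well in RPMI 1640/10% FBS and allowed 18 h to attach first.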

[3] = system: FDC-P1, normal mouse myelogeous stem cells; details: 24 h
[4] = system: AML-12, normal mouse liver cells; details: 24 h
physchem [5] = details: pH 7.4, log D n-Octanol-Dulbecco's PBS pH 7.4
[6] = system: H9c2 (2-1), normal rat cardiac muscle cells; details: 24 h
Protocol: In order to assess the cytotoxicity of the drugs to normal cells, we used 96 well plates plated at a density of 5000 cells per well (except for the FDC-P1 which were plated at 12,000 cells per well) with normal cell lines (ATCC, Table 1) maintained as per the directions of the ATCC: AML-12, normal mouse liver cells; NRK-52E, normal rat kidney cells; L8, normal rat skeletal muscle cells; FDC-P1, normal mouse myelogeous stem cells; and H9c2 (2-1), normal rat cardiac muscle cells. The cells in each plate were permitted to settle overnight before adding the test drug.
To each well (100 μl medium) 10 μl of drug in media was added at varying concentrations (1×10-10-0.01 mg/ml final concentration) and further incubated overnight at 37° C. with 5% CO2. After 24 h the following assays were performed. All experiments were repeated at least 3 times and were assayed in duplicate.
MTS assay (CellTiter 96 aqueous) was performed according to the manufacturer's (Promega) directions (for all cell types). Cell viability (mitochondrial activity) is determined via enzymatic conversion of the formazan substrate.

SK-OV3 = experiment: Inhibition of cells growth by colorimetric assay (SRB), SK-OV3; type: cell-based
From the text: The finality of these assays is to interrupt the growth of a “in vitro” tumor cell culture by means of a continued exhibition of the cells to the sample to be testing.
A colorimetric type of assay, using sulphorhodamine B (SRB) reaction has been adapted for a quantitative measurement of cell growth and viability [following the technique described by Philip Skehan, et al. (1990), New colorimetric cytotoxicity assay for anticancer drug screening, J. Natl. Cancer Inst., 82:1107-1112]
This form of the assay employs 96 well cell culture microplates of 9 mm diameter (Faircloth, 1988; Mosmann, 1983). Most of the cell lines are obtained from American Type Culture Collection (ATCC) derived from different human cancer types.
Cells are maintained in RPMI 1640 10% FBS, supplemented with 0.1 g/l penicillin and 0.1 g/l streptomycin sulphate and then incubated at 37° C., 5% CO2 and 98% humidity. For the experiments, cells were harvested from subconfluent cultures using trypsin and resuspended in fresh medium before plating.
Cells are seeded in 96 well microtiter plates, at 5×10^3 cells per well in aliquots of 195 μl medium, and they are allowed to attach to the plate surface by growing in drug free medium for 18 hours. Afterward, samples are added in aliquots of 5 μl in a ranging from 10 to 10^−8 μg/ml, dissolved in DMSO/EtOH/PBS (0.5:0.5:99). After 48 hours exposure, the antitumor effect are measured by the SRB methodology: cells are fixed by adding 50 μl of cold 50% (wt/vol) trichloroacetic acid (TCA) and incubating for 60 minutes at 4° C. Plates are washed with deionized water and dried. One hundred μl of SRB solution (0.4% wt/vol in 1% acetic acid) is added to each microtiter well and incubated for 10 minutes at room temperature. Unbound SRB is removed by washing with 1% acetic acid. Plates are air dried and bound stain is solubilized with Tris buffer. Optical densities are read on a automated spectrophotometric plate reader at a single wavelength of 490 nm.
The values for mean+/− SD of data from triplicate wells are calculated. Some parameters for cellular responses can be calculated: GI=growth inhibition, TGI=total growth inhibition (cytostatic effect) and LC=cell killing (cytotoxic effect).

[7] = system: NRK-52E, normal rat kidney cells; details: 24 h
IGROV = experiment: cells; type: cell-based; details: Homo sapiens, 48 h
In short: (§1)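 Seeding density 5×10^3 cells/well; attachment 18 h in drug-free medium; exposure 48 h, 10 to 10^−8 μg/ml. Fixation cold TCA 60 min at 4° C, SRB 10 min, absorbance 490 nm.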

SK-BR3 = experiment: cells; type: cell-based; details: Homo sapiens, SK-BR-3, 48 h
In short: as §1

MEL-28 = experiment: cells; type: cell-based; details: Homo sapiens, SK-MEL-28, 48 h
In short: as §1

PANC-1 = experiment: cells; type: cell-based; details: Homo sapiens, PANC-1, 48 h
In short: as §1

LOVO = experiment: cells; type: cell-based; details: Homo sapiens, LoVo, 48 h
In short: as §1

LNCAP = experiment: cells; type: cell-based; details: Homo sapiens, LNCaP, 48 h
In short: as §1

DU145 = experiment: cells; type: cell-based; details: Homo sapiens, DU-145, 48 h
In short: as §1

A549 = experiment: cells; type: cell-based; details: Homo sapiens, A549, 48 h
In short: as §1

IGROV-ET = experiment: cells; type: cell-based; details: Homo sapiens, 48 h
In short: as §1

K562 = experiment: cells; type: cell-based; details: Homo sapiens, K562, 48 h
In short: as §1

HT29 = experiment: cells; type: cell-based; details: Homo sapiens, HT-29, 48 h
In short: as §1

LOVO-DOX = experiment: cells; type: cell-based; details: Homo sapiens, 48 h
In short: as §1

[8] = system: L8, normal rat skeletal muscle cells; details: 24 h
CYP3A4 = CYP3A4 (Homo sapiens, UniProt P08684); experiment: in vitro; details: CYP3A4 (% inhibition)
Chain of CYP3A4 (P08684 whole entry): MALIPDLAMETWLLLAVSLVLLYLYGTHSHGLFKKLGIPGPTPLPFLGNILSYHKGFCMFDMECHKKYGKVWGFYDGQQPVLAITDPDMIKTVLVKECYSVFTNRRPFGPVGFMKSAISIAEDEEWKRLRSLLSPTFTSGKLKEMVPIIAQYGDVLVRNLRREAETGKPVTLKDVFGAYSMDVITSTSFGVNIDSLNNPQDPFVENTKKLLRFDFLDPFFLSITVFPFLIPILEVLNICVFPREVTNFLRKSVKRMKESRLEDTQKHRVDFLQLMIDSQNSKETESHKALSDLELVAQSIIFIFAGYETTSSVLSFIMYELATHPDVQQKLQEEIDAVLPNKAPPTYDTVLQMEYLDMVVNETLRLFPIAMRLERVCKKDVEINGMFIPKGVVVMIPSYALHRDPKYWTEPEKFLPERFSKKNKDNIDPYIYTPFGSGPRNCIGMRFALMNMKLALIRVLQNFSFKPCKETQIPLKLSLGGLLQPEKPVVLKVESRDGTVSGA

(HEPG2) = details: human, 24 h, 30 μM
[9] = H-MEC-1, 48 hours exposure, SRB
[10] = IGROV-ET, 48 hours exposure, SRB
[11] = LOVO-DOX, 48 hours exposure, SRB

With `COc1c(C)cc2c(c1O)[C@@H]1C3[C@@H]4SC[C@]5(NCCc6c5[nH]c5ccc(F)cc65)C(=O)COC[C@@H](c5c6c(c(C)c(OC(C)=O)c54)OCO6)N3[C@@H](O)[C@H](C2)N1C` (stereo partly shown) [Compound 35] the solubility (physchem [1]) was under 1 µM, the “Human Liver S9 Metabolic Stability (% remaining)” value [2] was 4 % remaining and the GI50 (H-MEC-1; [9]) was 2.6 nM. It also gave an IC (TGI) (H-MEC-1; [9]) of 30.4 nM, a CC50 (H-MEC-1; read-out: LC50, H-MEC-1, 48 hours exposure, SRB) of 12900 nM and a Myelo [3] of 4.08E−08. The Liver [4] was 4.88E−08, the logD at 60 min (physchem [5]) was over 5 and the Heart [6] was 1.93E−08. For the same compound, the GI50 (SK-OV3; Homo sapiens, SK-OV-3, 48 h, SK-OV3, 48 hours exposure, SRB) was 4.37 nM, the CC50 (SK-OV3; Homo sapiens, SK-OV-3, 48 h, read-out: LC50, SK-OV3, 48 hours exposure, SRB) was 12900 nM and the TGI (SK-OV3; SK-OV3, 48 hours exposure, SRB) was 1.46E−08 Molar. The Kidney [7] was 3.42E−08, the GI50 (IGROV; 48 hours exposure, SRB) was 3.45 nM and the IC (TGI) (IGROV; 48 hours exposure, SRB) was 7.72 nM. The CC50 (IGROV; read-out: LC50, IGROV, 48 hours exposure, SRB) was 3380 nM, the GI50 (SK-BR3; SK-BR3, 48 hours exposure, SRB) was 2.21 nM and the IC (TGI) (SK-BR3; SK-BR3, 48 hours exposure, SRB) was 6.55 nM. For the same compound, the CC50 (SK-BR3; read-out: LC50, SK-BR3, 48 hours exposure, SRB) was 1090 nM, the GI50 (MEL-28; MEL-28, 48 hours exposure, SRB) was 2.78 nM and the IC (TGI) (MEL-28; MEL-28, 48 hours exposure, SRB) was 7.16 nM. The CC50 (MEL-28; read-out: LC50, MEL-28, 48 hours exposure, SRB) was 47 nM, the GI50 (PANC-1; PANC-1, 48 hours exposure, SRB) was 4.52 nM and the IC (TGI) (PANC-1; PANC-1, 48 hours exposure, SRB) was 42.1 nM. It also gave a CC50 (PANC-1; read-out: LC50, PANC-1, 48 hours exposure, SRB) of 12900 nM, a GI50 (LOVO; 48 hours exposure, SRB) of 2.26 nM and an IC (TGI) (LOVO; 48 hours exposure, SRB) of 5.68 nM. It also gave a CC50 (LOVO; read-out: LC50, LOVO, 48 hours exposure, SRB) of 12.9 nM, a GI50 (LNCAP; 48 hours exposure, SRB) of 0.816 nM and an IC (TGI) (LNCAP; 48 hours exposure, SRB) of 2.5 nM. For the same compound, the CC50 (LNCAP; read-out: LC50, LNCAP, 48 hours exposure, SRB) was 7.48 nM, the GI50 (DU145; DU145, 48 hours exposure, SRB) was 3.83 nM and the IC (TGI) (DU145; DU145, 48 hours exposure, SRB) was 12 nM. The CC50 (DU145; read-out: LC50, DU145, 48 hours exposure, SRB) was 12900 nM, the GI50 (A549; A549, 48 hours exposure, SRB, read-out: GI50) was 3.03 nM and the IC (TGI) (A549; A549, 48 hours exposure, SRB, read-out: TGI) was 7.65 nM. The CC50 (A549; read-out: LC50, A549, 48 hours exposure, SRB) was 4090 nM, the GI50 (IGROV-ET; [10]) was 5.53 nM and the IC (TGI) (IGROV-ET; [10]) was 23.5 nM. For the same compound, the CC50 (IGROV-ET; read-out: LC50, IGROV-ET, 48 hours exposure, SRB) was 12900 nM, the GI50 (K562; K562, 48 hours exposure, SRB) was 1.14 nM and the IC (TGI) (K562; K562, 48 hours exposure, SRB) was 2.67 nM. It also gave a CC50 (K562; read-out: LC50, K562, 48 hours exposure, SRB) of 10.2 nM, a GI50 (HT29; HT29, 48 hours exposure, SRB) of 4.19 nM and an IC (TGI) (HT29; HT29, 48 hours exposure, SRB) of 13.2 nM. For the same compound, the CC50 (HT29; read-out: LC50, HT29, 48 hours exposure, SRB) was 12900 nM, the GI50 (LOVO-DOX; [11]) was 26.8 nM and the IC (TGI) (LOVO-DOX; [11]) was 124 nM. The CC50 (LOVO-DOX; read-out: LC50, LOVO-DOX, 48 hours exposure, SRB) was 12900 nM, the Skeletal [8] was 3.07E−08 and the inhibition at 30 min, 10 µM (CYP3A4) was 24%. For the same compound, the “Cell Viability (% inhibition)” value ((HEPG2)) was 23 % inhibition.
